Like-named read-outs stand apart in the source and are kept apart here.
What was measured:
[1] = tested on: Mycobacterium butyricum induced paw volume increase; experiment: anti-arthritic activity, standard adjuvant arthritis method; assay type: in vivo; conditions: intraperitoneal, rat
Protocol: The anti-arthritic activity of (CCCCV) was determined in the rat, according to the standard adjuvant arthritis method, consisting in the injection of a suspension killed Mycobacterium butyricum in mineral oil in the right hind paw under light ether anesthesia. The volume of the left hindpaw was measured by plethysmography.

[2] = gastrointestinal tolerability following intraperitoneal administration; assay type: in vivo
Text: In addition, the gastrointestinal tolerability was examined in (CCCCV), as compared to the native agent.

[3] = rat, in vivo, po
[4] = plasmatic concentration after oral administration in the rats; conditions: for native products found in plasma: since the first hours of administration; for time of plasmatic elimination half-life versus native compounds: sometimes even by 300% higher
[5] = tested on: rat; assay type: in vivo
Protocol: The gastrointestinal tolerability was evaluated by oral administration in the rat.

[6] = tested on: collagen-stimulated platelets; experiment: platelet anti-aggregating activity in vivo; conditions: power ratio related to the basic product taken as unit standard; oral administration
Protocol: The platelet anti-aggregating activity was evaluated in vivo on the collagen-stimulated platelets, according to the method described by PINON, J.Pharmacol.Methods 12,79 (1984); the gastrointestinal tolerability was evaluated by oral administration in the rat.
The results are shown in Table 2, which summarizes the study of the antithrombotic properties of said products (III), (XIII) (XVII) and (XVIII) after their oral administration.

[7] = tested on: carrageen edema; experiment: anti-inflammatory activity, carrageen edema method; assay type: in vivo; conditions: power ratio related to the basic product taken as unit standard; oral administration, rat
Protocol: The anti-inflammatory activity was determined according to the method of carrageen edema, as described by WINTER et al. Proc.Soc.Exp.Biol.Med. 111,544 (1962), in the rat.
The results are shown in Table 1, which summarizes the study of the anti-inflammatory properties of the compounds under examination after oral administration.

[8] = Table 2, relative to Aspirin = 1, oral administration
[9] = Table 1, power ratio related to the basic product taken as unit standard, oral administration

C[C@]12CCC(=O)C=C1CC[C@@H]1[C@@H]2[C@@H](O)C[C@@]2(C)[C@H]1CC[C@]2(O)C(=O)COC(=O)CCCCCCCC(=O)OCC(=O)[C@]1(O)CC[C@@H]2[C@H]3CCC4=CC(=O)CC[C@@]4(C)[C@@H]3[C@H](O)C[C@]21C [(CCCCV), di(21-hydrocortisone)azelate]
anti-arthritic potency relative to parent compound [1]: comparable with the parent compound
duration of pharmacological activity relative to parent compound [1]: greater duration
inhibition of Mycobacterium butyricum induced paw volume increase ([1]; suspended in carboxymethylcellulose 0.5-2%): effective in inhibiting significantly
gastrointestinal tolerability compared to the native agent [2]: significantly better tolerated than the parent compound
time of plasmatic elimination half-life versus native compounds [3]: significantly higher
native products found in plasma [4]: significant quantities of the native products were found

CC(=O)Oc1ccccc1C(=O)OCCCCCCOC(=O)c1ccccc1OC(C)=O [(III), 1.6-hexandiol bis-acetylsalicylate]
GASTROINT. TOLERABIL. [5, 8]: 0.1
PLATELET ANTI-AGGREGATING ACTIVITY [6]: 0.8

CC(C(=O)OCCCCOC(=O)C(C)c1ccc(-c2ccccc2)c(F)c1)c1ccc(-c2ccccc2)c(F)c1 (centres unmarked) [(IX)]
GASTROINT. TOLERABILITY [5, 9]: 0.3
native products found in plasma [4]: significant quantities of the native products were found
time of plasmatic elimination half-life versus native compounds [4]: significantly higher

CC(C(=O)OCCCCOC(=O)C(C)c1cccc(C(=O)c2ccccc2)c1)c1cccc(C(=O)c2ccccc2)c1 (centres unmarked) [(VII), 1,4-butandiole bis-2-[(3-benzoyl)phenyl]propionate]
ANTIEDEMIGENIC ACTIVITY [7]: 0.9
GASTROINT. TOLERABILITY [5, 9]: 0.3

O=C(Cc1ccccc1Nc1c(Cl)cccc1Cl)OCCCCOC(=O)Cc1ccccc1Nc1c(Cl)cccc1Cl [(X)]
GASTROINT. TOLERABILITY [5, 9]: 0.1

CS(=O)(=O)N(C(=O)CCC(=O)N(c1ccc([N+](=O)[O-])cc1Oc1ccccc1)S(C)(=O)=O)c1ccc([N+](=O)[O-])cc1Oc1ccccc1 [(XI), bis-(N-[(2-phenoxy-4-nitro)phenyl]-N′-methansulfonyl)succinamide]
GASTROINT. TOLERABILITY [5, 9]: 0.8
native products found in plasma [4]: significant quantities of the native products were found
time of plasmatic elimination half-life versus native compounds [4]: significantly higher

CC(=O)Oc1ccccc1C(=O)OCCCCOC(=O)c1ccccc1OC(C)=O [(XIII), 1,4-buthanediol bis-acetylsalycylate]
GASTROINT. TOLERABIL. [5, 8]: 0.1
PLATELET ANTI-AGGREGATING ACTIVITY [6]: 0.8

CC(=O)Oc1ccccc1C(=O)O [Aspirin, reference compound]
GASTROINT. TOLERABIL. ([5]; in vivo, po): 1
PLATELET ANTI-AGGREGATING ACTIVITY [6]: 1

O=C(O)Cc1ccccc1Nc1c(Cl)cccc1Cl [Diclofenac, reference compound]
GASTROINT. TOLERABILITY [5, 9]: 1

CC(C(=O)O)c1ccc(-c2ccccc2)c(F)c1 (centres unmarked) [Flurbiprofen, reference compound]
GASTROINT. TOLERABILITY ([5]; in vivo, po): 1

CC(C(=O)O)c1cccc(C(=O)c2ccccc2)c1 (centres unmarked) [Ketoprofen, reference compound]
GASTROINT. TOLERABILITY [5, 9]: 1

COc1ccc2cc([C@H](C)C(=O)O)ccc2c1 [Naproxen, reference compound]
GASTROINT. TOLERABILITY ([5]; in vivo, po): 1

CS(=O)(=O)Nc1ccc([N+](=O)[O-])cc1Oc1ccccc1 [Nimesulide, reference compound]
GASTROINT. TOLERABILITY [5, 9]: 1
